Assay [1] has as its system promyelocytic leukemia cells HL60 (N-RasQ61L). Nature of the assay: Cell growth inhibition, suspension cells HL60. To be noted: Homo sapiens, HL-60, 72 hours; for inhibition at 3.3 µM: read-out: HL-60 (NRasQ61L) % inhibition at 3.3 μM (**); for inhibition at 10 µM: read-out: HL-60 (NRasQ61L) % inhibition at 10 μM (***). It counts as cell-based. As for the experimental part:
(§1) The cell growth inhibitory activity of the compound of the present invention on human culture cells having active-type mutation in Ras was evaluated by the below-mentioned method using suspension cancer cells {acute lymphoblastic leukemia cells CCRF-CEM (K-RasG12D), promyelocytic leukemia cells HL60 (N-RasQ61L), acute lymphoblastic leukemia cells MOLT4 (N-RasG12C), and small cell lung cancer cells SHP77 (K-RasG12V)} and adherent cancer cells {large bowel cancer cells SW480 (K-RasG12V) and large bowel cancer cell SW620 (K-RasG12V)}.
(Case of suspension cells) The cells suspended in a medium containing 0.5% (v/v) fetal bovine serum (FBS) and each compound solution (final DMSO concentration: 1%) were seeded on a 96-well plate (2 to 4×10^4 cells/well), and the resulting mixture was then cultured at 37° C. in the presence of 5% CO2 for 72 hours.
(§2) Thereafter, the number of viable cells was measured using Cell Counting Reagent (Nacalai Tesque) in accordance with the manufacturer's instructions. Inhibition by the test compound was determined according to the following equation: […]

The target in assay [2] is GTPγS-bound human HRasG12V / human c-Raf-1 Ras binding domain (RBD) (Homo sapiens (Human), UniProt P01112, G12V). Nature of the assay: Ras-Raf binding inhibition ELISA. As for the experimental part:
The in vitro Ras-Raf binding inhibitory activity of the compound of the present invention was evaluated by an ELISA method (Enzyme-Linked ImmunoSorbent Assay) described below.
Ras and Raf used upon the evaluation were purified and activated by the following method.
Using a pGEX6P-1 vector (GE Healthcare), human HRasG12V (full length, 1-189 amino acid residues) and human c-Raf-1 Ras binding domain (RBD) (50-131 amino acid residues) were each allowed to express as a fusion body with glutathione S-transferase (GST) in E. coli.
GST-HRasG12V-expressing cells were subjected to ultrasonication in a buffer {50 mM Tris-HCl pH 7.4, 150 mM NaCl, 5 mM MgCl2, 1 mM ethylenediaminetetraacetic acid (EDTA), 1 mM dithiothreitol (DTT), 10% glycerol, and 1% Triton-X100}, and were then centrifuged at 100,000×g for 30 minutes, so as to collect the supernatant as a Ras protein fraction. HRasG12V in the supernatant was immobilized on a glutathione-agarose resin, and GST was then cleaved with PreScission Protease (GE Healthcare) for purification. The obtained HRasG12V was mixed with guanosine 5′-O-[gamma-thio]triphosphate trisodium salt (GTPTS) of 1000 times higher concentration at 30° C. for 1 hour, and thereafter, 20 mM MgCl2 (final concentration) was added to stop the reaction and collect the GTPgS-loaded HRasG12V as a product.
On the other hand, GST-c-Raf-1 RBD-expressing cells were subjected to ultrasonication in the same buffer as described above, and were then centrifuged at 100,000×g for 30 minutes, so as to collected the supernatant as a GST-c-Raf-1 RBD protein fraction.
The in vitro Ras-Raf binding inhibitory activity of the compound of the present invention was evaluated by an ELISA method described below.
GST-c-Raf-1 RBD diluted with a Ras-Raf binding buffer (50 mM Tris-HCl pH7.4, 150 mM NaCl, 5 mM MgCl2, 1 mM EDTA, and 1% Triton-X100) was added to each well of a glutathione-coated 96-well plate (Thermo Fisher Scientific.), and was incubated at 30° C. for 1 hour, to immobilize Raf on the well. The unbound free Raf was eliminated by washing the well with the Ras-Raf binding buffer three times. Subsequently, GTPTS-bound HRasG12V diluted with the Ras-Raf binding buffer and each compound solution (final DMSO concentration: 10%) were applied to each well, and the resulting mixture was then incubated at 30° C. for 1 hour, so that Ras and Raf were allowed to bind to each other. Thereafter, the plate was washed with the Ras-Raf binding buffer twice, and was then subjected to a blocking treatment at room temperature for 20 minutes, using TBS-Tween {10 mM Tris-HCl pH 7.4, 150 mM NaCl, and 0.05% (w/v) Tween-20}-5% (w/v) bovine serum albumin (BSA). After that, an anti-HRas antibody (C-20, Santa Cruz) or an anti-HRas antibody (259, Santa Cruz), which had been 1000 times diluted with TBS-Tween-5% BSA, was added to the reaction mixture, and incubated at room temperature for 1 hours. After the treatment with the primary antibody, the plate was washed with TBS-Tween-5% BSA three times, and a horseradish peroxidase-labeled secondary antibody against rabbit immunoglobulin G (GE Healthcare) of 1000 times diluted with TBS-Tween-5% BSA, was added to the plate, followed by incubation at room temperature for 1 hour. After the treatment with the secondary antibody, the plate was washed with TBS-Tween-5% BSA three times, and a substrate solution (TMB) was then added to the plate, followed by incubation at room temperature for 15 minutes for coloration. Finally, 2 M H2SO4 was added to stop color development (coloration reaction kit: Nacalai Tesque). The absorbance at 450 nm (OD450) was measured, so that the color intensity was quantified. Inhibition by the test compound was determined according to the following equation: […]
IC50 (*) in which the anti-HRas antibody (259, Santa Cruz) was used

Assay [3] concerns large bowel cancer cell SW620 (K-RasG12V). The experiment in a line: Cell growth inhibition, adherent cells SW620. To be noted: Homo sapiens, SW-620, 72 hours; for inhibition at 3.2 µM: read-out: SW620 (KRasG12V) % inhibition at 3.2 μM (***); for inhibition at 1 µM: read-out: SW620 (KRasG12V) % inhibition at 1 μM. The class given is cell-based. As for the experimental part: as §1
(Case of adherent cells) The cells suspended in a medium containing 10% FBS (1 to 2×10^4 cells/well) were seeded on a 96-well plate, and were then cultured at 37° C. in the presence of […]. Thereafter, the medium was exchanged with a medium containing […], to which each compound solution (final DMSO concentration: […]) had been added, and the cells were then cultured at 37° C. in the presence of […] for 72 hours.
as §2

Setting [4] is: anti-HRas antibody C-20, read-out: ELISA IC50 (μM): 1st Ab_C-20.
The mark [5] stands for this setting: anti-HRas antibody 259 (*), read-out: ELISA IC50 (μM): 1st Ab_259 (*).

Where two headings read alike, the source gives them in different places.

Chain of GTPγS-bound human HRasG12V / human c-Raf-1 Ras binding domain (RBD) (P01112 whole entry G12V, the tested form may be a part): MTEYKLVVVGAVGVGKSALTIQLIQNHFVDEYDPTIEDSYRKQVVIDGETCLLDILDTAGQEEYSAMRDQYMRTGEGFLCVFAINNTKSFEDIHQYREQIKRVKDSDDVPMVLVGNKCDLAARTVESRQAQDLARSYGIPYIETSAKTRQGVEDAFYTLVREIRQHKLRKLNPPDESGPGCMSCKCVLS

On to `CC(=O)N1C(=Cc2cc(-c3ccc4c(c3)CCNC4=O)c3cc(C(=O)N4CCOCC4)ccc3n2)C(=O)c2ccccc21` (racemic) [Example 147, 6-(2-((1-acetyl-3-oxoindolin-2-ylidene)methyl)-6-(morpholine-4-carbonyl)quinolin-4-yl)-3,4-dihydro-isoquinolin-1(2H)-one], for which the inhibition at 3.2 µM in assay [1] (3.2 μM (****), read-out: HL-60 (NRasQ61L) % inhibition at 3.2 μM (****)) was determined as 59.1%; in assay [3], 92.2%. Also, at 1 µM the inhibition in assay [2] was 66.1%. In addition, the IC50 in assay [2] (setting [4]) amounted to 0.5 µM.
With `CC(=O)N1/C(=C\c2cc(-c3cccc(-c4ccccc4)c3)c3cc(C(=O)N4CCOCC4)ccc3n2)C(=O)c2ccccc21` [Example 88, (Z)-2-((4-([1,1′-biphenyl]-3-yl)-6-(morpholine-4-carbonyl)quinolin-2-yl)methylene)-1-acetylindolin-3-one], the inhibition at 3.3 µM in assay [1] was found to be 89%. Besides, the IC50 in assay [2] (setting [4]) was 0.98 µM. In addition, the inhibition at 1 µM in assay [3] came to 46%.
Consider `CC(=O)N1/C(=C\c2cc(-c3ccccc3-c3ccccc3)c3cc(C(=O)N4CCOCC4)ccc3n2)C(=O)c2ccccc21` [Example 89, (Z)-2-((4-([1,1′-biphenyl]-2-yl)-6-(morpholine-4-carbonyl)quinolin-2-yl)methylene)-1-acetylindolin-3-one], for which the inhibition at 1.1 µM in assay [1] (1.1 μM (*), read-out: HL-60 (NRasQ61L) % inhibition at 1.1 μM (*)) is 95%. The IC50 in assay [2] (setting [4]) turned out to be 0.5 µM. In addition, the inhibition at 1 µM in assay [3] was 71%.
In the case of `CC(=O)N1/C(=C\c2cc(-c3cccc4cccnc34)c3cc(C(=O)N4CCOCC4)ccc3n2)C(=O)c2ccccc21` [Example 91, (Z)-1-acetyl-2-((6-(morpholine-4-carbonyl)-[4,8′-biquinolin]-2-yl)-methylene)indolin-3-one], the inhibition at 3.3 µM in assay [1] amounted to 97%. Besides, in assay [2] (setting [4]), the IC50 turned out to be 0.87 µM. Also, the inhibition at 1 µM in assay [3] was 70%.
For the molecule `CC(=O)N1C(=Cc2cc(-c3cccnc3-c3ccccc3)c3cc(C(=O)N4CCOCC4)ccc3n2)C(=O)c2ccccc21` [Example 94, 1-acetyl-2-((6-(morpholine-4-carbonyl)-4-(2-phenylpyridin-3-yl)quinolin-2-yl)-methylene)indolin-3-one], the inhibition at 3.3 µM in assay [1] was determined as 96%. Further, the inhibition at 1 µM in assay [3] was 82%.
As to `CC(=O)N1/C(=C\c2nc3cc(C(=O)N4CC(C)OC(C)C4)ccc3s2)C(=O)c2ccccc21` (centres unmarked) [Example 98, (Z)-1-acetyl-2-((5-(2,6-dimethyl-morpholine-4-carbonyl)benzo [d]thiazol-2-yl)-methylene)indolin-3-one], the inhibition at 10 µM in assay [1] worked out at 100%. Further, the IC50 in assay [2] (setting [5]) turned out to be 0.68 µM.
Regarding `CC(=O)N1/C(=C\c2nc3ccc(C(=O)N4CC(C)OC(C)C4)cc3s2)C(=O)c2ccccc21` (centres unmarked) [Example 100, (Z)-1-acetyl-2-((6-(2,6-dimethyl-morpholine-4-carbonyl)benzo [d]thiazol-2-yl)-methylene)indolin-3-one], the inhibition at 10 µM in assay [1] was determined as 87%. Besides, the IC50 in assay [2] (setting [5]) was 0.77 µM.
As for `CC(=O)N1/C(=C/c2cc(-c3ccnc4ccccc34)c3cc(C(=O)N4CCOCC4)ccc3n2)C(=O)c2ccccc21` [Example 117, (E)-1-acetyl-2-((6-(morpholine-4-carbonyl)-[4,4′-biquinolin]-2-yl)-methylene)indolin-3-one], the inhibition at 3.3 µM in assay [1] came to 94%. Further, the inhibition at 1 µM in assay [3] stood at 66%.
Turning to `CC(=O)N1/C(=C\c2ccc3cc(CNC4CCN(C5COC5)CC4)ccc3n2)C(=O)c2ccccc21` [Example 138, (Z)-1-acetyl-2-((6-(((1-(oxetan-3-yl)piperidin-4-yl)amino)meth-yl)quinolin-2-yl)-methylene)indolin-3-one], in assay [1], the inhibition at 3.3 µM amounted to 65%. In assay [2] (setting [5]), the IC50 is 0.88 µM.
Molecule `CC(=O)N1/C(=C\c2cc(-c3cn[nH]c3)c3cc(C(=O)N4CCOCC4)ccc3n2)C(=O)c2ccccc21` [Example 170, (Z)-1-acetyl-2-((6-(morpholine-4-carbonyl)-4-(1H-pyrazol-4-yl)quinolin-2-yl)-methylene)indolin-3-one] displayed an inhibition at 1 µM in assay [2] of 66.8%. For the same molecule, the IC50 in assay [2] (setting [4]) worked out at 0.5 µM. Further, the inhibition at 3.2 µM in assay [3] was 41.6%.
`CC(=O)N1/C(=C\c2cc(-c3cnn(C)c3)c3cc(C(=O)N4CCOCC4)ccc3n2)C(=O)c2ccccc21` [Example 171, (Z)-1-acetyl-2-((4-(1-methyl-1H-pyrazol-4-yl)-6-(morpholine-4-carbonyl)quinolin-2-yl)methylene)-indolin-3-one]: 1 µM produced 72% inhibition in assay [2]. Moreover, the IC50 in assay [2] (setting [4]) was 0.4 µM. Moreover, the inhibition at 3.2 µM in assay [3] was 79.5%.
Take `CC(=O)N1/C(=C\c2cc(-c3ncn(C)n3)c3cc(C(=O)N4CCOCC4)ccc3n2)C(=O)c2ccccc21` [Example 188, (Z)-1-acetyl-2-((4-(1-methyl-1H-1,2,4-triazol-3-yl)-6-(morpholine-4-carbonyl)quinolin-2-yl)methylene)-indolin-3-one]: in assay [2], the inhibition at 1 µM came out at 53.7%. The IC50 in assay [2] (setting [4]) amounted to 0.9 µM. The inhibition at 3.2 µM in assay [3] was found to be 79.3%.
On to `CC(=O)N1/C(=C\c2cc(-c3cnn(C)c3)c3cc(CNC4CCOCC4)ccc3n2)C(=O)c2ccccc21` [Example 205, (Z)-1-acetyl-2-((4-(1-methyl-1H-pyrazol-4-yl)-6-(((tetrahydro-2H-pyran-4-yl)amino)-methyl)quinolin-2-yl)methylene)-indolin-3-one], for which, in assay [2], testing at 1 µM gave an inhibition of 66.3%. Moreover, in assay [2] (setting [4]), the IC50 amounted to 0.7 µM. For the same molecule, in assay [3], the inhibition at 3.2 µM was found to be 37%.

For the origin of these results see patent publication US20250091994A1, “RAS/RAF BINDING INHIBITOR COMPOUND” (NATIONAL UNIVERSITY CORPORATION KOBE UNIVERSITY, priority 2021, published 2025).
